For the data set the following is noted: Liquid, Transpiration method.

As usually defined, the vapor or sublimation pressure is the equilibrium pressure above the liquid or solid.

Each structure is given as a SMILES string. “And” between values parts separate entries of the source, which are not always exact repeats. Identical values can stand only once. Numbers after ± are expanded uncertainties.

As to `O` [water], the “vapor or sublimation pressure” value runs as follows: (293.15 K) 2.319 ± 0.094 kPa and 2.32 ± 0.094 kPa and 2.315 ± 0.094 kPa; (298.15 K) 3.178 ± 0.13 kPa.

The values above are taken from the NIST ThermoML archive (doi:10.1021/acs.jced.6b00357).
